Experiments:
Format in all cases: in vivo
Parameters in all cases: key: 0 is no effect; 10 is complete control
[1] = tested on: blackgrass (Alopecurus myosuroides); assay: Test B pre-/postemergence
Procedure, shortened: (§1)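 Response scores run from 0, meaning no effect, to 10, meaning complete control, assigned by eye relative to controls twelve to sixteen days after spraying. Treatment was both preemergence on planted seed and postemergence on plants at the 1- to 4-leaf stage.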

[2] = tested on: cocklebur (Xanthium strumarium); assay: Test B pre-/postemergence
Procedure, shortened: as §1

[3] = tested on: corn (Zea mays); assay: Test B pre-/postemergence
Procedure, shortened: as §1

[4] = tested on: crabgrass (Digitaria sanguinalis); assay: Test B pre-/postemergence
Procedure, shortened: as §1

[5] = tested on: pigweed (Amaranthus retroflexus); assay: Test B pre-/postemergence
Procedure, shortened: as §1

[6] = tested on: purple nutsedge (Cyperus rotundus); assay: Test B pre-/postemergence
Procedure, shortened: as §1

[7] = tested on: rape (Brassica napus); assay: Test B pre-/postemergence
Procedure, shortened: as §1

[8] = tested on: soybean (Glycine max); assay: Test B pre-/postemergence
Procedure, shortened: as §1

[9] = tested on: sugar beet (Beta vulgaris); assay: Test B pre-/postemergence
Procedure, shortened: as §1

[10] = tested on: velvetleaf (Abutilon theophrasti); assay: Test B pre-/postemergence
Procedure, shortened: as §1

[11] = tested on: wheat (Triticum aestivum); assay: Test B pre-/postemergence
Procedure, shortened: as §1

[12] = tested on: bamyardgrass (Echinochloa crus-galli); assay: Test B flood test
Procedure, shortened: (§2)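 Each value is a visual injury score relative to controls, with 10 meaning complete control and 0 no effect. Evaluation took place twelve to sixteen days after the 2-leaf-stage plants were treated and kept in the greenhouse.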

[13] = tested on: duck salad (Heteranthera limosa); assay: Test B flood test
Procedure, shortened: as §2

[14] = tested on: rice (Oryza sativa); assay: Test B flood test
Procedure, shortened: as §2

[15] = tested on: smallflower flatsedge (Cyperus difformis); assay: Test B flood test
Procedure, shortened: as §2

[16] = Rate 62 g/ha, Postemergence (flood test)
[17] = Rate 125 g/ha, Postemergence, flood test
[18] = Rate 250 g/ha, Postemergence (flood test species)
[19] = Rate 500 g/ha, Postemergence (flood test species)

Cc1cnc(-c2ccc(C(F)(F)F)cc2)nc1Cn1nc(C(F)(F)F)cc1C [Compound 13]
Plant response rating, Blackgrass ([1]; Rate 62 g/ha, Postemergence): 3
Blackgrass plant response rating ([1]; Rate 62 g/ha, Preemergence): 2
Plant response rating, Blackgrass ([1]; Rate 125 g/ha, Postemergence): 3
Blackgrass plant response rating ([1]; Rate 125 g/ha, Preemergence): 4
Plant response rating, Blackgrass ([1]; Rate 250 g/ha, Postemergence): 5
Plant response rating, Blackgrass ([1]; Rate 250 g/ha, Preemergence): 4
Plant response rating, Blackgrass ([1]; Rate 500 g/ha, Postemergence): 5
Plant response rating, Blackgrass ([1]; Rate 500 g/ha, Preemergence): 9
Plant response rating, Cocklebur ([2]; Rate 62 g/ha, Postemergence): 6
Cocklebur plant response rating ([2]; Rate 62 g/ha, Preemergence): 0
Plant response rating, Cocklebur ([2]; Rate 125 g/ha, Postemergence): 9
Plant response rating, Cocklebur ([2]; Rate 250 g/ha, Postemergence): 9
Plant response rating, Cocklebur ([2]; Rate 250 g/ha, Preemergence): 5
Plant response rating, Cocklebur ([2]; Rate 500 g/ha, Postemergence): 9
Plant response rating, Cocklebur ([2]; Rate 500 g/ha, Preemergence): 7
Plant response rating, Corn ([3]; Rate 62 g/ha, Postemergence): 3
Corn plant response rating ([3]; Rate 62 g/ha, Preemergence): 1
Plant response rating, Corn ([3]; Rate 125 g/ha, Postemergence): 3
Corn plant response rating ([3]; Rate 125 g/ha, Preemergence): 1
Plant response rating, Corn ([3]; Rate 250 g/ha, Postemergence): 3
Plant response rating, Corn ([3]; Rate 250 g/ha, Preemergence): 1
Plant response rating, Corn ([3]; Rate 500 g/ha, Postemergence): 4
Plant response rating, Corn ([3]; Rate 500 g/ha, Preemergence): 2
Plant response rating, Crabgrass ([4]; Rate 62 g/ha, Postemergence): 3
Crabgrass plant response rating ([4]; Rate 62 g/ha, Preemergence): 9
Plant response rating, Crabgrass ([4]; Rate 125 g/ha, Postemergence): 4
Crabgrass plant response rating ([4]; Rate 125 g/ha, Preemergence): 10
Plant response rating, Crabgrass ([4]; Rate 250 g/ha, Postemergence): 7
Plant response rating, Crabgrass ([4]; Rate 250 g/ha, Preemergence): 10
Plant response rating, Crabgrass ([4]; Rate 500 g/ha, Postemergence): 9
Plant response rating, Crabgrass ([4]; Rate 500 g/ha, Preemergence): 10
Plant response rating, Redroot pigweed ([5]; Rate 62 g/ha, Postemergence): 9
Redroot pigweed plant response rating ([5]; Rate 62 g/ha, Preemergence): 7
Plant response rating, Redroot pigweed ([5]; Rate 125 g/ha, Postemergence): 9
Redroot pigweed plant response rating ([5]; Rate 125 g/ha, Preemergence): 9
Plant response rating, Redroot pigweed ([5]; Rate 250 g/ha, Postemergence): 10
Plant response rating, Redroot pigweed ([5]; Rate 250 g/ha, Preemergence): 9
Plant response rating, Redroot pigweed ([5]; Rate 500 g/ha, Postemergence): 10
Plant response rating, Redroot pigweed ([5]; Rate 500 g/ha, Preemergence): 9
Plant response rating, Nutsedge ([6]; Rate 62 g/ha, Postemergence): 0
Nutsedge plant response rating ([6]; Rate 62 g/ha, Preemergence): 0
Plant response rating, Nutsedge ([6]; Rate 125 g/ha, Postemergence): 0
Nutsedge plant response rating ([6]; Rate 125 g/ha, Preemergence): 0
Plant response rating, Nutsedge ([6]; Rate 250 g/ha, Postemergence): 0
Plant response rating, Nutsedge ([6]; Rate 250 g/ha, Preemergence): 0
Plant response rating, Nutsedge ([6]; Rate 500 g/ha, Postemergence): 0
Plant response rating, Nutsedge ([6]; Rate 500 g/ha, Preemergence): 0
Plant response rating, Rape ([7]; Rate 62 g/ha, Postemergence): 6
Rape plant response rating ([7]; Rate 62 g/ha, Preemergence): 5
Plant response rating, Rape ([7]; Rate 125 g/ha, Postemergence): 8
Rape plant response rating ([7]; Rate 125 g/ha, Preemergence): 6
Plant response rating, Rape ([7]; Rate 250 g/ha, Postemergence): 9
Plant response rating, Rape ([7]; Rate 250 g/ha, Preemergence): 9
Plant response rating, Rape ([7]; Rate 500 g/ha, Postemergence): 9
Plant response rating, Rape ([7]; Rate 500 g/ha, Preemergence): 9
Plant response rating, Soybean ([8]; Rate 62 g/ha, Postemergence): 4
Soybean plant response rating ([8]; Rate 62 g/ha, Preemergence): 1
Plant response rating, Soybean ([8]; Rate 125 g/ha, Postemergence): 5
Soybean plant response rating ([8]; Rate 125 g/ha, Preemergence): 1
Plant response rating, Soybean ([8]; Rate 250 g/ha, Postemergence): 5
Plant response rating, Soybean ([8]; Rate 250 g/ha, Preemergence): 3
Plant response rating, Soybean ([8]; Rate 500 g/ha, Postemergence): 5
Plant response rating, Soybean ([8]; Rate 500 g/ha, Preemergence): 3
Plant response rating, Sugarbeets ([9]; Rate 62 g/ha, Postemergence): 9
Sugarbeets plant response rating ([9]; Rate 62 g/ha, Preemergence): 9
Plant response rating, Sugarbeets ([9]; Rate 125 g/ha, Postemergence): 10
Sugarbeets plant response rating ([9]; Rate 125 g/ha, Preemergence): 10
Plant response rating, Sugarbeets ([9]; Rate 250 g/ha, Postemergence): 10
Plant response rating, Sugarbeets ([9]; Rate 250 g/ha, Preemergence): 10
Plant response rating, Sugarbeets ([9]; Rate 500 g/ha, Postemergence): 10
Plant response rating, Sugarbeets ([9]; Rate 500 g/ha, Preemergence): 10
Plant response rating, Velvetleaf ([10]; Rate 62 g/ha, Postemergence): 4
Velvetleaf plant response rating ([10]; Rate 62 g/ha, Preemergence): 6
Plant response rating, Velvetleaf ([10]; Rate 125 g/ha, Postemergence): 4
Velvetleaf plant response rating ([10]; Rate 125 g/ha, Preemergence): 7
Plant response rating, Velvetleaf ([10]; Rate 250 g/ha, Postemergence): 8
Plant response rating, Velvetleaf ([10]; Rate 250 g/ha, Preemergence): 10
Plant response rating, Velvetleaf ([10]; Rate 500 g/ha, Postemergence): 8
Plant response rating, Velvetleaf ([10]; Rate 500 g/ha, Preemergence): 10
Plant response rating, Wheat ([11]; Rate 62 g/ha, Postemergence): 2
Wheat plant response rating ([11]; Rate 62 g/ha, Preemergence): 0
Plant response rating, Wheat ([11]; Rate 125 g/ha, Postemergence): 3
Wheat plant response rating ([11]; Rate 125 g/ha, Preemergence): 0
Plant response rating, Wheat ([11]; Rate 250 g/ha, Postemergence): 3
Plant response rating, Wheat ([11]; Rate 250 g/ha, Preemergence): 0
Plant response rating, Wheat ([11]; Rate 500 g/ha, Postemergence): 4
Plant response rating, Wheat ([11]; Rate 500 g/ha, Preemergence): 1
Plant response rating, Barnyardgrass [12, 16]: 2
Plant response rating, Barnyardgrass [12, 17]: 2
Plant response rating, Barnyardgrass [12, 18]: 3
Plant response rating, Barnyardgrass [12, 19]: 3
Plant response rating, Ducksalad [13, 16]: 0
Plant response rating, Ducksalad [13, 17]: 1
Plant response rating, Ducksalad [13, 18]: 2
Plant response rating, Ducksalad [13, 19]: 3
Plant response rating, Rice [14, 16]: 0
Plant response rating, Rice [14, 17]: 0
Plant response rating, Rice [14, 18]: 0
Plant response rating, Rice [14, 19]: 1
Plant response rating, S. Flatsedge [15, 16]: 2
Plant response rating, S. Flatsedge [15, 17]: 4
Plant response rating, S. Flatsedge [15, 18]: 4
Plant response rating, S. Flatsedge [15, 19]: 5

Source: US6525001B1, “Substituted pyrimidine and pyridine herbicides” (Mid-American Commercialization Corporation, priority 1997, dated 2003)
